# Peptide text beside a SMILES is read from it. * marks the point of attachment. Bz = O=C(c1ccccc1)*
# How the values were obtained:
# [1] = test system: acetic acid ulcers in rats; assay: Anti-ulcerous effect on acetic acid-induced experimental gastric ulcers in rats (oral for 13 days from the day after ulceration), Table I; assay type: in vivo, Donryu-strain male rats; details: relative to glutamine
# Excerpt: The anti-ulcerous effects of the object compounds of this invention have been confirmed in tests on ulcers in rats. The ulcers were produced according to the method of K. Takagi, S. Okabe and R. Saziki, by the effect of acetic acid on the digestive organs (Japanese Journal of Pharmacology vol. 19 pages 418-426 (1969), Yakkyoku vol. 25 pages 1453-1459 (1974) and Experientia vol. 27 pages 146-148 (1971). It is known that this experimental ulcer resembles human peptic ulcers with respect to the overall and histological findings and as to the recovery process. The experimental details confirming the anti-ulcerous effect are as follows.
# Donryu-strain male rats having a body weight -- 230-270g (ten rats to a group) were not fed for 24 hours and then were anesthesized with ether. A laparotomy was performed. The stomach was exposed and 0.05 ml of 10% acetic acid was injected into the subserosal layer in the glandular part of the anterior wall to produce the experimental ulcers. The abdomen was then closed. Beginning on the day after the ulceration, the compounds of this invention were orally administered to the rats for 13 days. The rats were fed normally and sacrificed on the 15th day after the ulcer formation. The size of the ulcer (length and width) in the glandular part of the stomach was measured and the product of the length and width was used as the ulcer index (UI). The curative ratio (%) was calculated from the ulcer index of the rats which were medicated as compared with the index of the control group. [formula]
# For the purpose of comparing the effects with those of known drugs, the therapeutic effects of the compounds of this invention, tyrosine itself and gefarnate relative to those of glutamine were calculated and are listed in Table I. Of these compounds, gefarnate (geranyl farnesylacetate,U.S. Pat. No. 3,154,570 (1964) and glutamine are known anti-ulcerous drugs.
# [2] = Acute toxicity, oral, mice; details: in vivo, mouse p.o.
# [3] = test system: chronic acetic acid ulcers in rats; assay: Anti-ulcerous effect on chronic acetic acid ulcers in rats (oral, 41st to 54th day after ulceration), Table II; assay type: in vivo; details: 14 days, relative to glutamine
# Protocol: Donryu-strain male rats having a body weight -- 230-270g (ten rats to a group) were not fed for 24 hours and then were anesthesized with ether. A laparotomy was performed. The stomach was exposed and 0.05 ml of 10% acetic acid was injected into the subserosal layer in the glandular part of the anterior wall to produce the experimental ulcers. The abdomen was then closed. […] […] The size of the ulcer (length and width) in the glandular part of the stomach was measured and the product of the length and width was used as the ulcer index (UI). The curative ratio (%) was calculated from the ulcer index of the rats which were medicated as compared with the index of the control group. [formula] Acetic acid ulcers in rats are known to undergo partial healing and re-ulceration so that these ulcers resemble human chronic ulcers, both histologically and functionally. In order to examine the anti-ulcerous effects on chronic ulcers, the compounds of this invention were orally administered to rats for 14 days, from the 41st day to the 54th day after ulceration with acetic acid. On the 55th day, the rats were sacrificed and the size of the ulcer was measured. The procedure used in ulceration and in the determination of effects are the same as those described hereinbefore.
SMILES,Relative therapeutic effect ([1]; 200 mg/kg/day),LD50 [2],further results
COc1ccc(C(=O)N[C@H](CO)Cc2ccc(O)cc2)cc1,1.76,> 4000 mg/kg,–
COc1ccccc1C(=O)N[C@H](CO)Cc1ccc(O)cc1,1.29,–,–
COc1cc(C(=O)N[C@H](CO)Cc2ccc(O)cc2)cc(OC)c1OC,1.43,> 4000 mg/kg,–
Nc1ccc(C(=O)N[C@H](CO)Cc2ccc(O)cc2)cc1,1.24,–,–
Cc1ccc(COC(=O)N[C@H](CO)Cc2ccc(O)cc2)cc1,1.81,> 4000 mg/kg,–
O=C(N[C@H](CO)Cc1ccc(O)cc1)OCc1ccc(F)cc1,1.14,–,–
O=C(N[C@H](CO)Cc1ccc(O)cc1)OCc1ccc(Cl)cc1,0.81,–,–
O=C(N[C@H](CO)Cc1ccc(O)cc1)OCC1CCCCC1,1.60,–,–
"COc1ccc(C(=O)N[C@@H](Cc2ccccc2)C(=O)N[C@@H](Cc2ccc(O)cc2)C(=O)O)cc1 [Compound (II) R3 =CH3 O, N-(4-methoxybenzoyl)-phenylalanyltyrosine]",–,> 4000 mg/kg,Relative therapeutic effect ([3]; 50 mg/kg/day): 7.85
"O=C(N[C@@H](Cc1ccccc1)C(=O)N[C@@H](Cc1ccc(O)cc1)C(=O)O)c1ccccc1 [Compound (II) R3 =H, N-benzoylphenylalanyltyrosine] (Bz-Phe-Tyr-OH)",1.19,> 4000 mg/kg,–
"CC(C)=CCCC(C)=CCCC(C)=CCCC(=O)OC/C=C(\C)CCC=C(C)C [Gefarnate, geranyl farnesylacetate, reference compound]",1.06,–,Relative therapeutic effect ([3]; 200 mg/kg/day): 0.77
"NC(=O)CC[C@H](N)C(=O)O [Glutamine, glutamine, reference compound]",0.30,–,Relative therapeutic effect ([1]; 1000 mg/kg/day): 1.00; Relative therapeutic effect ([3]; 1000 mg/kg/day): 1.00
COC(Cc1ccccc1)C(=O)N[C@H](CO)Cc1ccc(O)cc1 (stereo partly drawn) [N-(α -methoxy-β-phenylpropionyl)-tyrosinol],–,> 4000 mg/kg,–
"COc1ccc(C[C@@H](CO)NC(=O)OCc2ccc(OC)c(OC)c2)cc1 [O-methyl-N-(3,4-dimethoxybenzyloxycarbonyl)-tyrosinol]",0.98,> 4000 mg/kg,–
COc1ccc(C[C@@H](CO)NC(=O)OCc2ccccc2)cc1 [O-methyl-N-benzyloxycarbonyltyrosinol],1.03,> 4000 mg/kg,–
"N[C@@H](Cc1ccc(O)cc1)C(=O)O [Tyrosine, tyrosine]",0.37,–,–
COc1ccc(COC(=O)N[C@H](CO)Cc2ccc(O)cc2)cc1 [drawing 11],1.75,> 4000 mg/kg,–
COc1ccc(COC(=O)N[C@H](CO)Cc2ccc(O)cc2)cc1 [drawing 17],–,–,Relative therapeutic effect ([3]; 50 mg/kg/day): 7.72

# Reference: patent publication US4025644A, “Tyrosine derivatives and use” (Daiichi Seiyaku Co., Ltd., priority 1974, dated 1977)
